Several values for one entry are separate records, joined by “and”; a condition that tells them apart may be missing. Equal entries are not always repeated. Activity calls are given as the source filed them.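 The calls were made as follows: active = compounds giving half or more protection of infected cells from virus-caused growth loss, again on retest; inactive = the rest.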
Tested on: CEM cells HIV-1 protection, formazan growth assay
Assay: NCI AIDS Antiviral Assay
Settings: for IC50: measured here: growth of uninfected CEM cells
How it was run: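 Soluble formazan readout of cell growth; CEM cells ± HIV-1; 5 drug concs. ≥50% protection → retest; ≥50% again = moderately active; reproducible 100% = confirmed active.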

Row | Structure (SMILES) | EC50 | IC50 | outcome
1 | O=C1C(=O)c2ccccc2C(O)=C1C(C1=C(O)c2ccccc2C(=O)C1=O)c1ccc(Cl)c(Cl)c1 | > 200 µM | 18.6 µM | 
2 | CC(=O)Oc1cc(/C=C(\C#N)C(=O)NCCCCCNC(=O)/C(C#N)=C/c2cc(OC(C)=O)c(OC(C)=O)c(OC(C)=O)c2)cc(OC(C)=O)c1OC(C)=O | > 200 µM | 27.5 µM | 
3 | c1ccc(CN2C3C4N(Cc5ccccc5)C2C2N(Cc5ccccc5)C(C(N2Cc2ccccc2)N4Cc2ccccc2)N3Cc2ccccc2)cc1 | > 100 µM | > 100 µM | 
4 | O=C(OCCN1CCCCC1)c1cc2ccccc2n1-c1ccccc1 | > 200 µM | 97.7 µM | 
5 | c1ccc(-c2cc(-c3cc(-c4ccccc4)n(-c4ccccc4)n3)nn2-c2ccccc2)cc1 | > 100 µM | > 100 µM | 
6 | COc1ccc2c(c1)c1cc(OC)ccc1n2CCCCOc1ccc(-c2c3ccccc3c(-c3ccc(OCCCCn4c5ccc(OC)cc5c5cc(OC)ccc54)cc3)c3ccccc23)cc1 | > 1.55 µM | > 1.55 µM | 
7 | CCCCCCCCCCCC1=C(NCCS)C(=O)C=C(NCCS)C1=O | > 1.26 µM | > 1.26 µM | 
8 | CCOC(=O)/C(=C\c1ccc(C(=O)OC)cc1)[Se]c1ccccc1 | > 66.1 µM | 61.7 µM | 
9 | O=[N+]([O-])C(Cl)=C/C(=C(\Cl)SCc1ccccc1)[N+](=O)[O-] | > 200 µM | 12 µM | 
10 | CC(C)OP(=O)(OC(C)C)C(=NCCN=C(NNc1ccccc1[N+](=O)[O-])P(=O)(OC(C)C)OC(C)C)NNc1ccccc1[N+](=O)[O-] | > 13.8 µM | > 13.8 µM | 
11 | Nc1ccc2ncc(Nc3ccc(Cl)c(Cl)c3)nc2c1 | > 8.91 µM | > 8.91 µM | 
12 | Cn1c(N)nc2c3ccc(=O)[nH]c3ccc21 |  |  | inactive
13 | O=C(CN1CCOCC1)CC(O)(C(F)(F)F)C(F)(F)F | > 200 µM | 95.5 µM | 
14 | COC12c3ccccc3-c3ccccc3C1[C@H]1C(=O)OC(=O)[C@H]12 (some centres undefined) | > 162 µM | > 162 µM | 
15 | COc1ccc(OC)c(C(=O)/C=C\C(=O)O)c1 | > 219 µM | 24.5 µM | 
16 | O=C1c2ccccc2C(=Nc2ccc3ccccc3c2)C1(C1=C(c2ccccc2)C(=Nc2ccc3ccccc3c2)c2ccccc21)c1ccccc1 (centres undefined) | > 200 µM | 11.7 µM | 
17 | COS(=O)(=O)OC1(SC)C=C(c2ccccc2)SS1 (centres undefined) | > 200 µM | 107 µM | 
18 | CCOP(=O)(OCC)/C(=C\n1ccc(=O)[nH]c1=S)C(=O)OC | > 200 µM | > 200 µM | 
19 | C[C@@H](NC(=O)c1ccccc1SC(=O)OCC[n+]1ccccc1)C(N)=O | 2.82 µM | > 200 µM | 
20 | Cn1cc2c(=O)n3ncn(-c4ccc(Br)cc4)c3nc2n1 | > 200 µM | > 200 µM | 
21 | COC1(C)CCC2(O)C(=O)OC3C(O)COC32O1 (centres undefined) | > 200 µM | > 200 µM | 
22 | O=C(O)C1[S][Bi]([S]C(C(=O)O)C([S][Bi]2[S]C(C(=O)O)C(C(=O)O)[S]2)C(=O)O)[S]C1C(=O)O (centres undefined) | > 1.32 µM | > 1.32 µM | 
23 | c1ccc(-c2cc(N3CCOCC3)c3ccccc3n2)cc1 |  |  | inactive
24 | N#CC1=C(N)CCC(C#N)(c2ccccc2)C1 (centres undefined) | > 200 µM | > 200 µM | 
25 | O=[N+]([O-])c1ccc(CN=C2NNS(=O)(=O)c3ccccc32)cc1 | > 15.8 µM | > 15.8 µM | 
26 | Cn1cc(NC(=O)c2cc(NC(=O)c3cc(NC=O)cn3C)cn2C)cc1C(=O)NCCC(=N)N | > 513 µM | 30.2 µM | 
27 | CC(CN(C)C)OCCn1c2c(c3ccccc31)CCCC2 (centres undefined) | > 200 µM | 13.5 µM | 

Row | Structure (SMILES) | EC50 | IC50 | outcome
28 | N#Cc1c(-c2ccccc2)cc(-c2ccc(N)cc2)[nH]c1=O | > 18.2 µM | > 18.2 µM | 
29 | O=C(CC(=O)N1N=C(N2CCCCC2)CC1c1ccccc1)Nc1ccccc1 (centres undefined) | > 200 µM | > 200 µM | 
30 | O=C1CN(c2cccc(Cl)c2)C(=O)CN1CCN1CC(=O)N(c2cccc(Cl)c2)CC1=O | > 200 µM | > 200 µM | 
31 | N=C(N)Oc1ccc(Cl)cc1 | > 200 µM | 26.9 µM | 
32 | COc1ccc(N=Cc2ccc(N(CCC#N)S(=O)(=O)c3ccccc3)cc2C)cc1 | > 219 µM | 112 µM | 
33 | CC1=NN(C(=O)CC(=O)Nc2cccc(Cl)c2)C(=O)C1N=Nc1ccc(C(=O)O)cc1 (centres undefined) | > 200 µM | 52.5 µM | 
34 | Cn1c(=O)nc2n(-c3ccc(Cl)cc3)c3ccc(Cl)cc3nc-2c1=O |  |  | inactive
35 | CSc1nc2c(c(=O)n1C)N=C(c1ccc([N+](=O)[O-])cc1)CC(c1ccccc1)N2 (centres undefined) | > 200 µM | 155 µM | 
36 | O=C1c2c(O)ccc(O)c2C(=O)c2c(NCCOCCO)ccc(NCCOCCO)c21 | > 200 µM | 3.55 µM | 
37 | Clc1cccc(C=NC23CC4CC(CC(C4)C2)C3)c1Cl | > 200 µM | 13.2 µM | 
38 | CC(=O)/C(=C\c1ccccc1)C(=O)Nc1ccccc1 | > 38 µM | > 38 µM | 
39 | c1cnn(CN(Cn2cccn2)Cn2cccn2)c1 |  |  | inactive
40 | Cc1occc1C(=S)Nc1ccc(Cl)c(C(=O)OCC2CC2)c1 | 0.0186 µM | 53.7 µM | 
41 | c1ccc2c(c1)oc1ccc3nsnc3c12 | > 15.8 µM | > 15.8 µM | 
42 | COc1cccc2c1C(=O)c1c(O)c3c(c(O)c1C2=O)CC(O)(C(O)CO)CC3OC1CC(N2CCOCC2)C(O)C(C)O1 (centres undefined) | > 0.2 µM | 0.00355 µM | 
43 | O=C1C(=Cc2cccc(F)c2)C(=O)c2ccccc21 | > 20.9 µM | > 20.9 µM | 
44 | CCOP(=O)(OCC)C(F)(F)Cc1cnc(C)c2c1COC(C)(C)O2 | > 200 µM | > 200 µM | 
45 | CC1=C(C)C(=O)c2c(cc3ccccn23)C1=O |  |  | inactive
46 | CCN(CC)c1ccc(C2N3CCCCC3[C@@H]3c4[nH]c5ccccc5c4CCN23)cc1 (some centres undefined) | > 16.2 µM | > 16.2 µM | 
47 | N#CN/C(N)=N/CO | > 776 µM | 46.8 µM | 
48 | CN(/C(=N\O)c1ccccc1)c1ccccc1 |  |  | inactive
49 | Nc1nc2c(c(=O)[nH]1)C(c1ccccc1)CC(=O)N2 (centres undefined) | > 200 µM | > 200 µM | 
50 | Cc1ccc(-c2c3nc(c(-c4ccc(C)cc4)c4ccc([nH]4)c(-c4ccc(C)cc4)c4nc(c(-c5ccncc5)c5ccc2[nH]5)C=C4)C=C3)cc1.Cc1ccc(-c2c3nc(c(-c4ccc(C)cc4)c4ccc([nH]4)c(-c4ccc(C)cc4)c4nc(c(-c5ccncc5)c5ccc2[nH]5)C=C4)C=C3)cc1.O=S(=O)([O-])C(F)(F)F.[Pd+2].c1ccc([PH+](CCC[PH+](c2ccccc2)c2ccccc2)c2ccccc2)cc1 | > 50.1 µM | 3.47 µM | 
51 | CC1(O)c2ccccc2[P+](C)(c2ccccc2)c2ccccc21 (centres undefined) | > 562 µM | 29.5 µM | 
52 | COc1ccc(/C(C)=N/N=C\c2cc(OC)c(OC)c(OC)c2)cc1 | > 200 µM | > 200 µM | 
53 | CC(Cc1ccccc1)NC1=NCCO1 (centres undefined) | > 200 µM | 145 µM | 
54 | CN(C)CCSc1cccc(-c2cc(-c3cccc(SCCN(C)C)c3)ncn2)c1 | > 21.9 µM | 8.71 µM | 

Row | Structure (SMILES) | EC50 | IC50 | outcome
55 | CC(=O)OCc1cn(S(=O)(=O)c2ccc(C)cc2)cn1 | > 200 µM | 24 µM | 
56 | CCOC(=O)c1cc2c(nc1NCc1ccc(OC)c(OC)c1)/C(=C/c1ccccc1)CCCC2 | > 200 µM | 10.2 µM | 
57 | CCCCCCCCCCCCCCCCCCOC(COP(=O)(O)OCC1OC(n2cc(C)c(=O)[nH]c2=O)CC1N=[N+]=[N-])COP(=O)(O)OC1CC(n2cc(C)c(=O)[nH]c2=O)OC1CO (centres undefined) | 0.17 µM | 30.9 µM | 
58 | COc1ccc(S(=O)(=O)N/N=C\c2cc([N+](=O)[O-])cc(I)c2O)c(OC)c1OC | > 468 µM | 67.6 µM | 
59 | N#CC1=C(C#N)/C(=C(\C#N)C(C#N)C#N)N=C1N | > 100 µM | 37.2 µM | 
60 | CCOC(=O)CC[C@H](NC(=O)c1nc[nH]c1[N+](=O)[O-])C(=O)OCC | > 200 µM | > 200 µM | 
61 | NC1=NN(c2ccccc2)C(=O)C1/C(=N\NC(=O)c1cc2ccccc2cc1O)C(=O)Nc1ccc(Cl)c(Cl)c1 (centres undefined) | > 45.7 µM | > 45.7 µM | 
62 | COC1CC(OC2C(C)OC(OC3C(C)OC(OC4C(O)CC(O[C@H]5CC[C@@]6(C)C(=CC[C@]7(O)[C@@H]6C[C@@H](OC(C)=O)[C@@]6(C)[C@]7(O)CC[C@@]6(O)C(C)=O)C5)OC4C)CC3OC)CC2OC)OC(C)C1O (some centres undefined) | > 200 µM | > 200 µM | 
63 | CC(C)N(C=C(C#N)C#N)C(C)C | > 200 µM | > 200 µM | 
64 | CC(C)(C)N=C(N)NC#N | > 200 µM | > 200 µM | 
65 | CC(=O)NNc1nc(C)c(C(/C=C/c2ccc([N+](=O)[O-])cc2)=N/NC(N)=S)s1 | > 69.2 µM | > 69.2 µM | 
66 | COC(=O)C1CC(C(=O)OC)c2nc3cc([N+](=O)[O-])ccc3nc21 (centres undefined) | > 151 µM | 61.7 µM | 
67 | COC1OC(CCC2NC(CO)C(O)C(O)C2O)C(O)C(O)C1O (centres undefined) | > 200 µM | > 200 µM | 
68 | O=C(c1ccccc1)N1CN(C(=O)c2ccccc2)CN(C(=O)c2ccccc2)C1 | > 200 µM | 30.2 µM | 
69 | CNC(=O)OC(COC)CN1CCN(c2ccccc2C)CC1 (centres undefined) | > 200 µM | > 200 µM | 
70 | C/C(=N\NS(=O)(=O)c1ccc(C)cc1)C(CN(C)C)C(c1ccccc1)c1c(O)c2ccccc2oc1=O (centres undefined) | > 72.4 µM | > 72.4 µM | 
71 | O=C(CCCCCCCCC(=O)NCC1(c2ccccc2)CCNCC1)NCC1(c2ccccc2)CCNCC1 | > 100 µM | > 100 µM | 
72 | O=c1c(-c2ccc(O)cc2)coc2c(C3OC(CO)C(O)C(O)C3O)c(O)ccc12 (centres undefined) | > 200 µM | > 200 µM | 
73 | CCOC(OCC)/C(C)=N/[N+](C)(C)C | > 200 µM | > 200 µM | 
74 | Cc1c(Cl)cccc1N=NC(=O)NNc1cccc(Cl)c1C | > 200 µM | 33.1 µM | 
75 | CC(C)OC(=O)c1ccc(NCC2=CC(=O)C=CC2=O)cc1Cl | > 200 µM | 9.33 µM | 
76 | c1ccc([P+](CCCCCC[P+](c2ccccc2)(c2ccccc2)c2ccccc2)(c2ccccc2)c2ccccc2)cc1 | > 200 µM | 5.37 µM and 7.24 µM | 
77 | CSC1=N/C(=C\c2ccc(C)cc2)C(=O)N1CN1CCCCC1 | > 200 µM | > 200 µM | 
78 | COc1ccccc1/C=C/c1ccc2ccccc2n1 | > 200 µM | 38 µM | 
79 | COc1cc(C2SCC(=O)N2c2ccc(-n3c(-c4ccccc4)nc4ccccc4c3=O)cc2)cc(OC)c1OC (centres undefined) | > 200 µM | 178 µM | 
80 | COC1OC2COc3ccccc3OC2C(NC(N)=S)C1OC (centres undefined) | > 132 µM | 41.7 µM | 
